Literature values in US20250387497A1, “MULTIVALENT MULTISPECIFIC CONJUGATES AND RELATED COMPOSITIONS AND METHODS OF USE” (Purdue Research Foundation, priority 2022, published 2025).

Experiments:
Her2 = Her2 (Homo sapiens, UniProt P04626); conditions: read-out: binding affinity for Her2
EGFR = EGFR (Homo sapiens, UniProt P00533); conditions: read-out: binding affinity for EGFR

Kd (Her2) [µM]	Kd (EGFR) [µM]	Sequence
0.3	–	FCGDGFYACYMDV [H]
–	459	YHWYGYTPQNVI [E]
